Results as given in US20250236596A1, “HYDROXYLAMINE-BASED EGFR INHIBITORS FOR TREATMENT OF CANCER WITH BRAIN METASTASES” (University of Georgia Research Foundation, Inc., priority 2022, published 2025).

Columns and labels:
[1] = system: Salmonella strains (TA98, TA100, TA1537 and TA1535); format: cell-based; conditions: with and without rat liver S9; 4 Salmonella strains
Method: Compounds were assessed for mutagenicity at Eurofins Panlabs. in 384-well plates using four Salmonella strains: TA98, to probe for frameshift mutation (with quercetin as control), TA100 and TA1535, to probe for base pair […] (with streptozotocin as control), and TA1537, to probe for frameshift mutations (with aminoacridine as control) as previously described.^21 Each compound was incubated at 37° C. for 96 h at four different concentrations (5, 10, 50, and 100 μM), with each concentration tested using 48 replicates, both with and without rat liver S9 metabolic activation. A concurrent bacterial cytotoxicity assay was ran at 0.6, 1.2, 2.5, 5, 10, 25, 50 and 100 μM to rule out false negatives. Bacterial cytotoxicity was expressed as percent of control growth (OD650). Compounds with growth of less than 60% control were flagged and considered bacterial cytotoxic. […] Significances of the positive counts between the treatment and control were determined using one-tailed Fisher's exact test.

[2] = system: activating mutant bearing EGFR; assay: KinaseProfiler enzymatic radiometric biochemical inhibition (IC50); conditions: ATP 10 μM, result in words
Method: (§1) In vitro kinase activity (inhibitor binding constants (Kd) and biochemical inhibition (IC50's)) were assessed by Eurofins DiscoverX (Kd determinations) and Eurofins Cerep (biochemical IC50 determinations).

MDCKII-MDR1 cells = assay: MDCKII-MDR1 cell permeability assay; format: in vitro ADME, canine
Method: (§2) Compounds were evaluated at Pharmaron Inc. for their ability to permeate Caco-2 cells and MDCKII-MDR1 cells. A 96-well HTS Transwell plate (Corning) was used for the Caco-2 and MDCKII-MDR1 cell seeding. Caco-2 cells were seeded at a density of 6.86×10^5 cells/mL and cultivated for 14-18 days prior to assays. MDCKII-MDR1 cells were seeded at a density of 1.56×10^6 cells/mL and cultivated for 4-8 days prior to assays. To determine the rate of drug transport in both the absorptive (apical to basolateral (A-B)) and secretory (basolateral to apical (B-A)) directions, compounds (5 μM in DMSO for Caco-2 cells, and 1 μM in DMSO for MDCKII-MDR1 cells) were added to the donor wells. Plates were incubated at 37° C. for 2 h and samples (50 μL) were taken at the beginning and end of the incubation in both the donor and acceptor wells with the assay run in duplicate (n=2). Samples were analyzed by LC-MS/MS. The apparent permeability coefficient (Papp) in units (cm/s×10^−6) was calculated using the following equation.
(§3) where, VA represents the volume (mL) in the acceptor well. Area is the surface of the membrane (0.143 cm^2 for Transwell-96 well plate) and time is the total transport time in sec.
(§4) The efflux ratio was determined using the following equation: Efflux ratio=Papp (B-A)/Papp(A-B)
(§5) Where, Papp (B-A) indicates the apparent permeability in the basolateral to apical direction, and Papp (A-B) indicates the apparent permeability in the apical to basolateral direction.

[3] = molecular target: activating mutant bearing EGFR; assay: KINOMEScan KdELECT inhibitor binding constants (Kd); conditions: result in words
Method: as §1

Caco-2 cells = assay: Caco-2 cell permeability assay; format: in vitro ADME; conditions: for efflux / permeability: result in words
Method: as §2, §3, §4, §5

Row | Compound | mutagenicity in AMES fluctuation assay [1] | biochemical inhibition (IC50) [2] | increase in permeability compared to 1 (MDCKII-MDR1 cells) | efflux (MDCKII-MDR1 cells; result in words) | inhibitor-binding constants (Kd) [3] | enhancement in permeability compared to 1 (Caco-2 cells) [fold] | efflux (Caco-2 cells) | permeability (MDCKII-MDR1 cells; result in words) | permeability (Caco-2 cells)
1 | COc1cc2ncnc(Nc3ccc(F)c(Cl)c3)c2cc1OCCCN1CCOCC1 [Compound 1, Gefitinib, reference compound] | neither 1 or 6 were mutagenic | – | – | – | – | – | – | – | –
2 | COc1cc2ncnc(Nc3ccc(F)c(Cl)c3)c2cc1OCCON1CCOCC1 [Compound 6, N-(3-chloro-4-fluorophenyl)-7-methoxy-6-(2-(morpholinooxy)ethoxy)quinazolin-4-amine] | neither 1 or 6 were mutagenic | single-digit nanomolar | roughly 4 fold | decreased efflux | single-digit nanomolar | 14 | greatly decreased efflux | – | –
3 | COc1cc2ncnc(Nc3cccc(Cl)c3F)c2cc1OCCON1CCOCC1 [Compound 13, N-(3-chloro-2-fluorophenyl)-7-methoxy-6-(2-(morpholinooxy)ethoxy)quinazolin-4-amine] | – | – | – | low efflux | – | – | reduced efflux ratios | excellent permeability | remarkably enhanced permeability
4 | COc1cc2ncnc(Nc3ccc(F)c(Cl)c3)c2cc1OCCON1CCN(C)CC1 [Compound 14, N-(3-chloro-4-fluorophenyl)-7-methoxy-6-(2-((4-methylpiperazin-1-yl)oxy)ethoxy)quinazolin-4-amine] | – | – | – | – | – | – | high efflux | – | low permeability
